The source of these data is patent US9309247B2, “2-substituted imidazo[4,5-D]phenanthroline derivatives and their use in the treatment of cancer” (Aptose Biosciences Inc., priority 2013, dated 2016).

For test [1], the system named is colon carcinoma KM-12 cells. Put plainly: Colon carcinoma (KM-12) xenograft model. In kind it is in vivo, CD-1 female nude mice. As to conditions: vs vehicle-treated control, FIG. 2. On the procedure:
(§1) The ability of compound 1 to inhibit colon tumour growth in vivo was tested as follows. CD-1 female nude mice (7 mice per treatment group, 6-7 weeks) were injected […] with human colon adenocarcinoma cells HT-29 cells (3×10^6 cells in 0.1 ml PBS). Treatment of the mice with vehicle or 50 mg/kg/d of […] was initiated 5 days post-inoculation (size of tumours=20-40 mm^3) for 7-day cycles of five days followed by a 2 day break for 5 weeks. The size of the tumours was measured over the course of the experiment using calipers, and the weight of the tumours was measured after the animals were sacrificed.
(§2) Similar tests were conducted with colon carcinoma KM-12 cells and colon carcinoma SW-620 cells.

In test [2] the test system is panel of human and mouse lymphoma cell lines. Put plainly: Cell growth inhibition, whole lymphoma panel (mean IC50, mean rank). As to conditions: mean over six lymphoma cell lines. In kind it is cell-based. On the procedure:
(§3) In this study, compounds 1-8 were screened in vitro against a panel of four mouse lymphoma cell lines and two human lymphoma cell line for cell growth inhibition activity. Following treatment, half maximal inhibitory concentrations (IC50) were determined with the objective of selecting the most efficacious compounds for evaluation of in vitro absorption, distribution, metabolism, and excretion (ADME) screening.
(§4) Cells were subcultured and 4×10^3 cells (in 50 μL) were transferred to each well in a Falcon 96-well tissue culture plate. Exemplary compounds were dissolved in pure dimethyl sulphoxide (DMSO) at a concentration of 10 mM. From this 10 mM stock solution, 12 successive serial dilutions were made in DMSO (2.5 fold dilutions), ranging from 0.52 μM to 10 mM. Using these stock dilutions, 5 μL of each were added to 500 μL of media, and 50 μL of this was added to the cells. The final concentrations being tested ranged from 0.0026 μM to 50 μM. Each concentration was tested in triplicate, and DMSO and untreated cells were also included as controls. After five days of incubation with the compounds, cell viability was determined using the XTT cell proliferation kit (Roche, Cat. No. 11 465 015 001). Following the XTT protocol, 4.5-24 hours after addition of the reagent, the plates were read in a μQuant 96-well plate spectrophotometer (Biotek Instruments Inc.) and the results analyzed to determine the IC50.
In vitro potency was assessed using eight exemplary compounds against a panel of human and mouse lymphoma cell lines (Table 4). […] To compare the efficacy of the compounds in cell growth inhibition across the entire panel of cell lines screened, the eight compounds were ranked according to efficacy against each cell line with a numerical value of one indicating most efficacious (lowest IC50 value) and eight being the least efficacious (highest IC50 value).

Test [3] concerns human prostate cancer cell DU14. Put plainly: XTT cell proliferation assay, DU14. In kind it is cell-based. The note with it: 5 days incubation, read-out: Antiproliferative activity, Pros. DU14. On the procedure:
(§5) Exemplary compounds 1-8 were tested for anti-cancer activity in vitro using human renal cancer cells (ACHN and CAK-1), human pancreatic cells (BXPC3 and SU-86-86), human prostate cancer cell (DU14), human colon carcinoma cells (HT-29 and KM-12), leukemia cells (HL60), brain cancer/tumour cells (SK-A-AS, U87-MG), and human non-small cell lung cancer cells (H460). Compounds 1-8 are the specific embodiments of Formula (I) and Formula (IV) as described above in this application.
(§6) The cells were maintained as a monolayer in a growth medium; McCoy's 5A modified medium (Sigma, St. Louis, Mo.), supplemented with 2 mM L-glutamine (Gibco, Grand Island, N.Y.), 10% fetal bovine serum (FBS) (Multicell, WISENT Inc. St-Bruno, QC), antibiotic-antimycotic (Multicell), at 37° C. in a 5% CO2-humidified incubator. Cells were transferred onto 150 mm tissue culture plates and grown until sub-confluency (70-80%) prior to their use. The in vitro antiproliferative activity of compounds was evaluated by incubating the cells with varying concentrations of exemplary compounds as shown in Table 1 for 5 days. The efficacy of these compounds in this cell proliferation assay was measured based in the ability of live cells to reduce the tetrazolium salt XTT to orange colored compounds of formazan (XTT cell proliferation kit IT, Roche Applied Science, Montreal, QC).
For orientation: Tetrazolium dyes change colour on reduction, which living cells bring about.

Test [4] deals with human pancreatic cells BXPC3. Put plainly: XTT cell proliferation assay, BXPC3. It counts as cell-based. As to conditions: 5 days incubation, read-out: Antiproliferative activity, Pancreas BXPC3. How it is done:
as §5, §6

The test system of test [5] is pancreatic cancer (BxPC-3). Put plainly: Pancreatic cancer (BxPC-3) xenograft model. In kind it is in vivo, CD-1 female nude mice. As to conditions: pancreatic carcinoma BxPC-3; vs vehicle-treated control; FIG. 5. On the procedure:
as §1
(§7) The ability of compound 1 to inhibit renal cell carcinoma growth (see FIG. 4), to inhibit pancreatic carcinoma growth (FIG. 5), to inhibit large-cell lung carcinoma cell growth (FIG. 6), and to inhibit Glioblastoma cell growth (FIG. 7) was also tested following the general procedure as discussed above.

A further test deals with Glioblastoma (U87-MG). The test can be described thus: Glioblastoma (U87-MG) xenograft model. It counts as in vivo, CD-1 female nude mice. As to conditions: vs vehicle-treated control, FIG. 7. How it is done:
as §1, §7

Test [6] relates to non-small cell lung cancer cells HOP-92. Put plainly: XTT cell proliferation assay, HOP-92. It counts as cell-based, human. As to conditions: 5 days incubation, read-out: Antiproliferative activity, NSCLC HOP-92. How it is done:
[The procedure below names another cell line; the source lists this cell line under the same test.] as §5, §6

For test [7], the system named is Human Burkitt's lymphoma Raji cells. Put plainly: Cell growth inhibition assay, Raji. In kind it is cell-based. The note with it: five days of incubation, XTT; read-out: IC50 Raji (hs). How it is done: as §3
Human Burkitt's lymphoma Raji cells (ATCC CCL-86) were grown in suspension in Roswell Park Memorial Institute (RPMI) 1640 medium supplemented with 10% fetal bovine serum (FBS), 10 mM HEPES KOH pH 7.4, and 2 mM sodium pyruvate at 37° C. in an atmosphere of 5% CO2 in air. Logarithmically growing cells were routinely sub-cultured twice weekly. Briefly, cells were collected by centrifugation, resuspended in pre-warmed media, and diluted 1:10 into a 75 cm^2 flask.
as §4

Test [8] concerns colon carcinoma SW-620 cells. The test can be described thus: Colon carcinoma (SW-620) xenograft model. In kind it is in vivo, CD-1 female nude mice. As to conditions: vs vehicle-treated control, FIG. 3. How it is done: as §1, §2
Test [9] has as its system non small cell lung cancer (H460). The test can be described thus: Non small cell lung cancer (H460) xenograft model. It counts as in vivo, CD-1 female nude mice. As to conditions: large-cell lung carcinoma H460; vs vehicle-treated control; FIG. 6. How it is done: as §1, §7

As for `FC1(F)Oc2ccc(-c3nc4c5cccnc5c5ncccc5c4[nH]3)cc2O1` [Compound 1], the “inhibition of tumour growth, as measured by tumour size” value (in test [1]; in test [5]; in the test with Glioblastoma (U87-MG); in [8]; in test [9]) was “able to inhibit tumour growth” throughout. Moreover, the IC50 came out at 209 nM in [2]; 170 nM in [3]; 180 nM in test [4]; 160 nM in [6]; 153 nM in test [7].
